Assay results taken from article PMC7684578, “Isopedopeptins A–H: Cationic Cyclic Lipodepsipeptides from Pedobacter cryoconitis UP508 Targeting WHO Top-Priority Carbapenem-Resistant Bacteria” (ACS Chemical Biology, 2020).
In brackets after ≈: the same amount, converted by molar mass. Starred links: 1 amine or outer side, 2 acyl side, 3 side chain; linkers in the order of their positions; H or OH if unused. Positions of bridges follow the written chain, without caps; N, C: chain ends. Non-standard residues stand in square brackets, D forms with d. Residues, ends and D or L forms follow the SMILES beside them. X4 = CC(C)CCC=CCCC[C@H](CC(=O)[*:1])O[*:2]; X6 = CC(C)CCCCC=CC[C@H](CC(=O)[*:1])O[*:2]; X5 = CC(C)CCCCCCC[C@H](CC(=O)[*:1])O[*:2]; X3 = CC(C)CCCCC[C@H](CC(=O)[*:1])O[*:2]; X7 = CCCCCCC=CC[C@H](CC(=O)[*:1])O[*:2]; X2 = CCCCCCC[C@H](CC(=O)[*:1])O[*:2]; Val(3-OH) = CC(C)(O)[C@H](N)C(=O)O; X1 = C/C=C(/N[*:1])C(=O)[*:2]; Dab = NCC[C@H](N)C(=O)O; Dap = NC[C@H](N)C(=O)O

How the values were obtained:
Test in all cases: MIC, broth micro-dilution, primary panel
[1] = test system: K. pneumoniae LMG20218; type: cell-based, Klebsiella pneumoniae; details: for MIC K. pneumoniae LMG20218: ESBL; for MIC: Klebsiella pneumoniae, LMG20218, ESBL
Experimental: (§1) Isopedopeptin E (5): off-white solid; [α] D20 –36° (c 0.3 in methanol); UV (MeOH) λ max (log10 ε) 240 (3.8); 1H NMR (DMSO-d 6, 600 MHz), see Table S5; 13C NMR (DMSO-d 6, 150 MHz), see Table […]
(§2) Isopedopeptin F (6): off-white solid; [α] D20 –32° (c 0.05 in methanol); UV (MeOH) λ max (log10 ε) 240 (3.8); 1H NMR (DMSO-d 6, 600 MHz), see Table S6; 13C NMR (DMSO-d 6, 150 MHz), see Table […]
(§3) Isopedopeptin G (7): off-white solid; [α] D20 –49° (c 0.1 in methanol); UV (MeOH) λ max (log10 ε) 240 (4.0); 1H NMR (DMSO-d 6, 600 MHz), see Table S7; 13C NMR (DMSO-d 6, 150 MHz), see Table […]
(§4) Isopedopeptin H (8): off-white solid; [α] D20 –56° (c 0.2 in methanol); UV (MeOH) λ max (log10 ε) 240 (4.0); 1H NMR (DMSO-d 6, 600 MHz), see Table S8; 13C NMR (DMSO-d 6, 150 MHz), see Table […]
(§5) Minimal Inhibitory Concentration (MIC) against the primary panel of microorganisms.
(§6) The MIC for compounds 1–8 was measured by means of a broth micro-dilution method in 96-wells microtiter plates with the addition of E. coli LMG15862, LMG1041 T, E. cloacaeA. baumannii […]
(§7) H-29 and A. fumigatus J7, as test organisms. The test media were AM3 Broth (BD Difco Ltd) mixed with phosphate buffered saline (PBS, Amresco LLC, Solon, USA) in 1:4 ratio (E. coli, A. baumannii, E. cloacae, K. pneumoniae and P. aeruginosa), AM3 Broth mixed with PBS in 1:1 ratio (S. aureus), ME (A. fumigatus) and ISP2 (C. albicans). Prior to MIC determination, the cell concentration of tested bacterial/fungal pathogens was adjusted to ≅ 4 × 10^5 CFU/mL (acceptable range 2 – 6 × 10^5 CFU/mL). Cell concentration was confirmed by colony counting after diluting and plating the respective bacterial pathogen on VPA plates [VPA, 10 g Vegetable Peptone Broth (Oxoid Ltd., Basingstoke,UK), 15 g Bacto Agar (Difco Ltd, Tyrone) in 1 L deionised water] directly after each of MIC-tests. The cells of C. albicans were plated on ISP2 agar plates [ISP2, 15 g Bacto Agar (Difco Ltd) in 1 L deionised water] and respectively spores of A. fumigatus were plated on MEA plates.
(§8) Plates were, subsequently, incubated at 37 °C in the dark, and viable colonies counted after 16 to 24 h.
(§9) To estimate MIC values (concentration range between 0.05 and 50 µg/mL), solutions of the tested compounds (100, 10 and 1 and if needed 0.1 µg/mL in MeOH) were dispensed into wells of microtiter plate(s) and the solvent was evaporated in a fume-hood. Subsequently, suspensions of pathogen cells in the appropriate medium were dispensed to the wells of microtiter plates and the growth of pathogens were observed after 16 to 20 h of incubation at 37 °C in the dark. Positive controls were the respective pathogen cells suspended in untreated sterile media without addition of compounds(s) and negative controls were the media only. MIC values were defined as the lowest concentration of each compound with no visible growth of pathogen. All MIC tests were performed in triplicate and […]
(§10) MIC determination for compound 2 against an extended panel of bacterial strains.
(§11) Compound 2 was evaluated against a panel of Gram-negative bacteria (Hughes strain collection), including: A. baumannii ATCC 19606, wild-type; BM4454, multidrug-resistant clinical isolate; BM4652, efflux-defective derivative of BM4454; CH9622, colistin-resistant clinical isolate; E. coli ATCC 25922, wild-type; CH3130, efflux-defective ΔtolC mutant isogenic to ATCC 25922; D22, a drug-hypersensitive lpxC mutant of E. coli; CH3491, multidrug-resistant clinical isolate; CH9623 and CH9624, colistin-resistant clinical isolates carrying mcr-1; K. pneumoniae ATCC 13833, wild-type; […]
(§12) clinical isolate; CH9625 and CH9626, colistin-resistant clinical isolates; P. aeruginosa PAO1, wild-type; PAO750, efflux-defective mutant isogenic to PAO1. The in vitro antimicrobial activity of each compound was determined by measuring the MIC value using the broth micro-dilution technique in cation-adjusted Mueller-Hinton II broth (Becton-Dickinson, 212322) according to EUCAST and CLSI guidelines. Each compound prepared in MHII medium was dispensed into a 96-well round- […]

[2] = test system: B. cereus CCUG7414T; type: cell-based; details: Bacillus cereus
Experimental: as §1, §2, §3, §4, §5, §6, §7, §8, §9, §10, §11, §12

[3] = test system: S. aureus LMG15975; type: cell-based; details: Staphylococcus aureus, LMG15975 / MRSA
Experimental: as §1, §2, §3, §4, §5, §6, §7, §8, §9, §10, §11, §12

[4] = test system: C. albicans H-29; type: cell-based; details: Candida albicans, H29; WT
Experimental: as §1, §2, §3, §4, §5, §6, §7, §8, §9, §10, §11, §12

[5] = test system: E. coli LMG15862; type: cell-based; details: Escherichia coli, β-lactam.
Experimental: as §1, §2, §3, §4, §5, §6, §7, §8, §9, §10, §11, §12

[6] = test system: E. cloacae LMG2783T; type: cell-based; details: Enterobacter cloacae, WT
Experimental: as §1, §2, §3, §4, §5, §6, §7, §8, §9, §10, §11, §12

[7] = test system: A. baumannii LMG1041T; type: cell-based; details: Acinetobacter baumannii, WT
Experimental: as §1, §2, §3, §4, §5, §6, §7, §8, §9, §10, §11, §12

[8] = test system: A. fumigatus J7; type: cell-based; details: Aspergillus fumigatus
Experimental: as §1, §2, §3, §4, §5, §6, §7, §8, §9, §10, §11, §12

| Compound | MIC K. pneumoniae LMG20218 [1] [µg/mL] | MIC [1] [µg/mL] | MIC [2] [µg/mL] | MIC [3] [µg/mL] | MIC [4] [µg/mL] | MIC [5] [µg/mL] | MIC [6] [µg/mL] | MIC [7] [µg/mL] | MIC [8] [µg/mL] |
| --- | --- | --- | --- | --- | --- | --- | --- | --- | --- |
| C/C=C1/NC(=O)[C@H](CCN)NC(=O)[C@H](CC(C)C)NC(=O)[C@H](CN)NC(=O)C[C@@H](CCCCCC(C)C)OC(=O)[C@H](CC(=O)O)NC(=O)[C@H](C(C)(C)O)NC(=O)[C@@H](Cc2ccccc2)NC(=O)[C@H](CN)NC(=O)[C@H]([C@@H](C)O)NC1=O [Compound 1, cyclo(3-hydroxy-9-methyldecanoyl-DAPA1-Leu-DABA-ABA-Thr-DAPA2-Phe-OHVal-Asp)] ([Dap]L[Dab][X1]T[Dap][dF][Val(3-OH)]D; linker N-C via X3) | 8 (≈ 7.07 µM) | 8 to 16 (≈ 7.07 to 14.1 µM) | > 32 | > 32 | 32 (≈ 28.3 µM) | 4 (≈ 3.54 µM) | 16 (≈ 14.1 µM) | 4 (≈ 3.54 µM) | > 32 |
| C/C=C1/NC(=O)[C@H](CCN)NC(=O)[C@H](CC(C)C)NC(=O)[C@H](CN)NC(=O)C[C@@H](CCCCCCC)OC(=O)[C@H](CC(=O)O)NC(=O)[C@H](C(C)(C)O)NC(=O)[C@@H](Cc2ccccc2)NC(=O)[C@H](CN)NC(=O)[C@H]([C@@H](C)O)NC1=O [Compound 2, isopedopeptin B] ([Dap]L[Dab][X1]T[Dap][dF][Val(3-OH)]D; linker N-C via X2) | 16 (≈ 14.3 µM) | 8 to 16 (≈ 7.16 to 14.3 µM) | > 32 | 32 (≈ 28.6 µM) | 32 (≈ 28.6 µM) | 8 (≈ 7.16 µM) | 32 (≈ 28.6 µM) | 8 (≈ 7.16 µM) | > 32 |
| C/C=C1/NC(=O)[C@H](CCN)NC(=O)[C@H](CC(C)C)NC(=O)[C@H](CN)NC(=O)C[C@@H](CC=CCCCCCC)OC(=O)[C@H](CC(=O)O)NC(=O)[C@H](C(C)(C)O)NC(=O)[C@@H](Cc2ccccc2)NC(=O)[C@H](CN)NC(=O)[C@H]([C@@H](C)O)NC1=O [Compound 3, isopedopeptin C] ([Dap]L[Dab][X1]T[Dap][dF][Val(3-OH)]D; linker N-C via X7) | – | 32 (≈ 28 µM) | 32 (≈ 28 µM) | > 32 | 32 (≈ 28 µM) | 16 (≈ 14 µM) | 32 (≈ 28 µM) | 16 (≈ 14 µM) | > 32 |
| C/C=C1/NC(=O)[C@H](CCN)NC(=O)[C@H](CC(C)C)NC(=O)[C@H](CN)NC(=O)C[C@@H](CCCCCCC)OC(=O)[C@H](CC(=O)O)NC(=O)[C@H](C(C)C)NC(=O)[C@@H](Cc2ccccc2)NC(=O)[C@H](CN)NC(=O)[C@H]([C@@H](C)O)NC1=O [Compound 4, isopedopeptin D] ([Dap]L[Dab][X1]T[Dap][dF]VD; linker N-C via X2) | – | > 32 | 32 (≈ 29.1 µM) | > 32 | > 32 | 32 (≈ 29.1 µM) | 32 (≈ 29.1 µM) | 16 (≈ 14.5 µM) | > 32 |
| C/C=C1/NC(=O)[C@H](CCN)NC(=O)[C@H](CC(C)C)NC(=O)[C@H](CN)NC(=O)C[C@@H](CCCCCC(C)C)OC(=O)[C@H](CC(=O)O)NC(=O)[C@H](C(C)C)NC(=O)[C@@H](Cc2ccccc2)NC(=O)[C@H](CN)NC(=O)[C@H]([C@@H](C)O)NC1=O [Compound 5, Isopedopeptin E] ([Dap]L[Dab][X1]T[Dap][dF]VD; linker N-C via X3) | – | 32 (≈ 28.7 µM) | 16 (≈ 14.3 µM) | > 32 | > 32 | > 32 | > 32 | 32 (≈ 28.7 µM) | > 32 |
| C/C=C1/NC(=O)[C@H](CCN)NC(=O)[C@H](CC(C)C)NC(=O)[C@H](CN)NC(=O)C[C@@H](CCCCCCCC(C)C)OC(=O)[C@H](CC(=O)O)NC(=O)[C@H](C(C)(C)O)NC(=O)[C@@H](Cc2ccccc2)NC(=O)[C@H](CN)NC(=O)[C@H]([C@@H](C)O)NC1=O [Compound 6, Isopedopeptin F] ([Dap]L[Dab][X1]T[Dap][dF][Val(3-OH)]D; linker N-C via X5) | – | 32 (≈ 27.6 µM) | 32 (≈ 27.6 µM) | 32 (≈ 27.6 µM) | > 32 | 16 (≈ 13.8 µM) | 32 (≈ 27.6 µM) | 16 (≈ 13.8 µM) | > 32 |
| C/C=C1/NC(=O)[C@H](CCN)NC(=O)[C@H](CC(C)C)NC(=O)[C@H](CN)NC(=O)C[C@@H](CCCC=CCCC(C)C)OC(=O)[C@H](CC(=O)O)NC(=O)[C@H](C(C)C)NC(=O)[C@@H](Cc2ccccc2)NC(=O)[C@H](CN)NC(=O)[C@H]([C@@H](C)O)NC1=O [Compound 7, Isopedopeptin G] ([Dap]L[Dab][X1]T[Dap][dF]VD; linker N-C via X4) | 16 (≈ 14 µM) | 8 to 16 (≈ 7.01 to 14 µM) | 16 (≈ 14 µM) | 16 (≈ 14 µM) | > 32 | 8 (≈ 7.01 µM) | 16 (≈ 14 µM) | 8 (≈ 7.01 µM) | > 32 |
| C/C=C1/NC(=O)[C@H](CCN)NC(=O)[C@H](CC(C)C)NC(=O)[C@H](CN)NC(=O)C[C@@H](CC=CCCCCC(C)C)OC(=O)[C@H](CC(=O)O)NC(=O)[C@H](C(C)C)NC(=O)[C@@H](Cc2ccccc2)NC(=O)[C@H](CN)NC(=O)[C@H]([C@@H](C)O)NC1=O [Compound 8, Isopedopeptin H] ([Dap]L[Dab][X1]T[Dap][dF]VD; linker N-C via X6) | – | 16 (≈ 14 µM) | 32 (≈ 28 µM) | 16 (≈ 14 µM) | > 32 | 16 (≈ 14 µM) | 16 (≈ 14 µM) | 16 (≈ 14 µM) | > 32 |
